Results taken from US5770363A, “Methods for diagnosing human male infertility” (priority 1995, dated 1998).
Several values for one entry are separate records, joined by “and”; a condition that tells them apart may be missing. Equal values may be shown once. Entries after “also recorded” stand apart in the source; their conditions may differ.

How the values were obtained:
[1] = system: permeabilized human sperm; experiment: DTT (XEIM) pretreatment of permeabilized human sperm before HSAA; type: cell-based; settings: 50 mM DTT in XEIM, 45 minutes on ice
Method: On the day that the diagnostic method is to be performed, the samples are incubated for 30 minutes at 37° C.; each sample is then suspended in 10 ml of nuclear isolation medium (NIM, 200 mM sucrose, 2.4 mM MgCl2, 10 mM Tris-Hcl and 5 mM maleic acid, pH 7.4). A sperm count is taken and an aliquot (containing 20 million sperm) is pelleted in a centrifuge for 10 minutes at 400×g, then resuspended in 10 ml of NIM containing 0.05% lysolecithin and 1 μg/ml soybean trypsin inhibitor. The mixture is kept at room temperature for 5 minutes and the sperm repelleted as before, then washed, first in NIM with 3% BSA and then with NIM containing 0.4% BSA, as described by Lohka and Masui^1. Sperm will finally be suspended in Xenopus Extract Isolation Medium (XEIM, 10 mM Tris-HCL, pH 7.5, 1.5 mM MgCl2, 100 mM KCl and 50 mM DTT) at a concentration of 25,000 sperm/μl and kept on ice (between 0° C. and 4° C.) for 45 minutes before mixing with the frog egg extract. […] Such may be the result of reducing the protamines that in mammalian sperm are cross-linked by intermolecular disulfide bonds.^67 […]

male reproductive system = settings: in vivo; cited from earlier work
[2] = system: human sperm nuclei (chromatin decondensation); experiment: Human sperm activation assay (HSAA): chromatin decondensation of chemically treated, permeabilized human sperm in Xenopus laevis egg extract; type: cell-based; settings: for effect on sperm chromatin decondensation, in words (SEGS): SEGS-treated human sperm in vitro; for effect on decondensation, in words (hydroxylamine alone): 5 μM hydroxylamine; for reversal of SEGS crosslinks / restoration of decondensation, in words: SEGS-treated sperm, then hydroxylamine
human sperm nuclei [3] = settings: extract containing aphidicolin; cited from earlier work
DNA polymerase alpha = settings: cited from earlier work
human sperm nuclei [4] = experiment: HSAA with frog egg extract ± aphidicolin (decondensation, recondensation, DNA synthesis of sperm nuclei); type: cell-based
Method: A HSAA will be set up using normal control sperm. After addition of the sperm to the egg extract containing BrdUrd (10 μM, 92) in place of ^3 H-TTP, aliquots will be taken at 15 minute time intervals throughout the 3 hours of the HSAA, with cytopreps made as previously described. However, instead of performing autoradiography, the BrdUrd staining protocol of Royere et al (1988)^131, which reference is specifically incorporated herein by reference for this purpose, will be used. The cytopreps will be fixed in cold methanol-acetic acid (3:1 v/v) followed by an RNase treatment.
The procedure requires that the DNA be partially denatured to expose incorporated BrdUrd to the specific antibody. The anti-BrdUrd antibodies that have been developed so far only bind BrdUrd in single-stranded DNA. The DNA-denaturing step will be done by placing the cytoprep slides in Copeland jars containing distilled water at 95° C. for 10 minutes. The slides will then be transferred into Copeland jars containing ice cold distilled water for 2 minutes and the sperm nuclei stained using anti-BrdUrd antibody (Boehringer Mannheim, mouse IgG) in PBS as the manufacturer's recommended dilution, followed by rhodamine-conjugated Goat anti-mouse IgG. The stained nuclei will be analyzed individually in our image analysis system.
Aphidicolin is described in Ikegami et al (1978)^101. This study will use sperm shown previously to respond normally in the HSAA.
Fluorescence intensities will be determined as previously described and plotted as fluorescence units above background fluorescence.
We will run a duplicate HSAA±aphidicolin (10 μg/ml), except minus tritiated thymidine triphosphate. After incubation, the sperm will be washed in PBS, fixed with 70% ethanol, centrifuged, and the fixative removed. The sperm will be resuspended in one volume of pretreatment solution (0.2M citric acid and 0.5% Tween 20) and incubated at RT for 20 minutes with gentle shaking. Subsequently, 9 volumes of the staining solution containing […] hydrogen phosphate and 5 μM 4', 6-diamidino-2-phenylindole (DAPI) will be added to raise the pH to ~7.0 and stain the DNA. The stained cells are stable for 24-48 hours, so can be shipped and/or transported by PI to Dr. Manimekalai's Laboratory where we will obtain flow cytometric histograms of the DNA content of the sperm nuclei. […] Estimated DNA synthesis for the sperm nuclei incubated in extract containing aphidicolin will be determined, and determine if it is in the 20-30% range (observed using the autoradiographic approach) when compared to the estimated DNA synthesis for the sperm nuclei incubated in extract without aphidicolin. […] Staining approaches that can be followed by quantitative flow cytometry include the use of Hoechst 33342 (64) and acridine orange (96).

rats = settings: cited from earlier work

For `O[C@H](CS)[C@H](O)CS` (racemic) [DTT, Dithiothreitol], the “effect of pretreatment on decondensation and DNA synthesis events” value [1] was “enhance the decondensation and DNA synthesis "activation" events”.

For `CS(=O)(=O)OCCCCOS(C)(=O)=O` [Busulfan], the “male reproductive toxicity, in words” value (male reproductive system) is listed as “kills reserve and differentiating operamatogonia and reserve stem cell populations in the testis”.

For `O=C(CCC(=O)ON1C(=O)CC(S(=O)(=O)O)C1=O)OCCOC(=O)CCC(=O)ON1C(=O)CC(S(=O)(=O)O)C1=O` (stereo not drawn) [SEGS], the inhibition at 3400 µM ([2]; Homo sapiens, Sperm, 3.4 mM SEGS, read-out: sperm in which decondensation was prevented) was > 75%, the “effect on sperm chromatin decondensation, in words (SEGS)” value [2] was “abnormal decondensation responses; also recorded: abnormal chromatin decondensation; also recorded: did not decondense; also recorded: do not decondense” and the “effect on sperm chromatin decondensation, in words (SEGS)” value ([2]; listed as SULFO-EGS) was “block decondensation”. The “level to which decondensation is inhibited” value ([2]; as low as, permeabilized sperm) was 20 % of the control.

In the case of `O=C(O)c1cc(/N=N/c2ccc(S(=O)(=O)Nc3ccccn3)cc2)ccc1O` [Sulfasalazine], the “male reproductive toxicity, in words” value (male reproductive system) is given as “reduced sperm count and fertilizing capability affected in treated patients”.

In the case of `C[C@@]1(CO)[C@H](O)CC[C@@]2(C)[C@H]1CC[C@H]1C[C@@H]3C[C@@]12CC[C@]3(O)CO` [aphidicolin], the “DNA synthesis (previously demonstrated, ref. 17)” value (human sperm nuclei [3]) is listed as “blocked”, the “decondensation of sperm nuclei (previously demonstrated, ref. 17)” value (human sperm nuclei [3]) is listed as “normal” and the “recondensation of sperm nuclei (previously demonstrated, ref. 17)” value (human sperm nuclei [3]) is listed as “normal”. The “inhibition of DNA polymerase alpha” value (DNA polymerase alpha) was “known inhibitor of DNA polymerase alpha”, the “% labelled nuclei in extract containing aphidicolin / % labelled nuclei without aphidicolin × 100, expected” value (human sperm nuclei [4]; aphidicolin 10 μg/ml, 2 hours, autoradiography) was 20-30% and the DNA synthesis (human sperm nuclei [4]; extract containing aphidicolin) was “blocked”. The “decondensation of sperm nuclei” value (human sperm nuclei [4]; extract containing aphidicolin) was “normal” and the “recondensation of sperm nuclei” value (human sperm nuclei [4]; extract containing aphidicolin) was “normal”.

In the case of `O=P1(N(CCCl)CCCl)NCCCO1` (stereo not drawn) [cyclophosphamide], the “effect on pre- and postimplantation loss” value (rats) is listed as “increasing pre- and postimplantation loss” and the “decondensation of sperm from treated rats” value (rats; six weeks treatment) is listed as “do not decondense”.

With `NO` [hydroxylamine] the “effect on decondensation, in words (hydroxylamine alone)” value [2] was “normal decondensation; also recorded: no effect on decondensation”, the “sperm decondensed, hydroxylamine given alone” value ([2]; 5 μM hydroxylamine 5 hours, pH 8.5, 15 minutes in the extract) was 92.0±2.8% and the “effect on decondensation, in words (hydroxylamine alone)” value ([2]; listed as Hydroxylamine) was “no effect”. For the same molecule, the “sperm decondensed after crosslinking with SEGS and then treatment with hydroxylamine” value ([2]; 3.4 mM SEGS 30 min, then 5 μM hydroxylamine 5 hours, 15 minutes in the extract) was 76% and 76.0±5.9%, the “reversal of SEGS crosslinks / restoration of decondensation, in words” value [2] was “restored, normal decondensation; also recorded: able to remove the crosslinker; also recorded: able to reverse most of the crosslinks; also recorded: reversed the damage” and the “reversal of SEGS crosslinks / restoration of decondensation, in words” value ([2]; listed as Hydroxylamine) was “restore normal decondensation”. For the same molecule, the “effect on decondensation, in words (higher hydroxylamine concentrations)” value ([2]; hydroxylamine higher than 5 μM) was “adverse effect on decondensation”.
